Laboratory results from patent US20120328660A1, “IMMUNOGENIC COMPOSITIONS USEFUL IN PROVOKING AN INTEGRATED RESPONSE TO TUMOR ANTIGENS” (priority 2011, published 2012).

Legend:
CD4+ T cell lines = experiment: Cytokine production of CD4+ T cell lines by sandwich ELISA; format: in vivo, human
Procedure: Equal amounts of CD4^+ T cell lines created supra, and autologous EBV-B cells (5×10^4) were co-cultured in 250 μl RPMI and 10% FCS. After the EBV-B cells had been pulsed overnight or not with the assay OLPs and cultured for 24 hours, supernatant was harvested, and stored at −20° C. until sandwich ELISAs were carried out using standard methods. The cytokines which were assayed included IFN-γ, GM-CSF, IL-4, IL-9, IL-10, IL-13, IL-17, and TGF-β. These are all known to be produced by different CD4^+ subsets.

[1] = system: NY-ESO-1 region consisting of amino acids 100-129; experiment: ELISA with assay OLPs as coating antigens to determine epitopes recognized by induced IgG; format: in vivo, human; details: accelerating the response, increasing titer, broadening antibody repertoire
Procedure: In these experiments, the epitopes recognized by the NY-ESO-1 specific IgGs that were induced by immunization were determined. ELISAs were carried out, using standard methods, with the assay OLPs supra being used as coating antigens. Antibody titers of subjects were tested at week 16, with the exception of one sample, which was tested at week 13. IgG responses were most frequent and strongest against the NY-ESO-1 region consisting of amino acids 121-150. The NY-ESO-1 region consisting of amino acids 80-109 was also recognized frequently, and in the case of the NY-ESO-1 region consisting of amino acids 100-129, all patients who received the combination of the peptides, Montanide, and polyICLC had relevant antibodies, as did 4/9 of the patients who received the peptides in Montanide only. There was a much lower response to the NY-ESO-1 region consisting of amino acids 142-173. In all cases, polyICLC enhanced the humoral, immune response, not only by accelerating the response and increasing titer, but also by broadening antibody repertoire.

## polyICLC
CD4+ T cell lines; in vivo
  IL-9 production by T cells following immunization: inhibited completely
CD4+ T cell lines; week 13 and 16
  level of IL-4: significantly suppressed
  level of IL-9: significantly suppressed
  level of IL-13: significantly suppressed
CD4+ T cell lines; when polyICLC was used
  IL-9/IL-4 ratio: significantly lower
[1]
  effect on humoral immune response: enhanced
